Results from patent US7294643B2, “UK-1 analogues: methods of preparation and use” (Board of Regents, The University of Texas System, priority 2002, dated 2007).

Assays:
[1] = system: SK-N-F1; assay: alamarBlue cytotoxicity assay, SK-N-F1; assay type: cell-based
Method: (§1) Cytotoxicity Assays. Cell culture cytotoxicity assays were performed using the. alamarBlue method, as described by Ahmed et al., J. Immun. Methods 1994, 170, 211-224, which is incorporated herein by reference. Briefly, aliquots of 100 μL of cell suspension (1.0-2.5×10^3 cells) was placed in 96-well microtiter plates in an atmosphere of 5% CO2 at 37° C. After 24 hours, 100 μL of culture medium and 2 μL of compound in vehicle (culture media with 40% pyridine) or vehicle alone were added, and the plates incubated an additional 72 hours. The final pyridine concentration in all cases was 0.4%; at this pyridine concentration there was no affect on the growth of cells compared to cells in culture media without added pyridine. […] After the culture media had been removed from each well, 200 μL of fresh media and 20 μL of 90% alamarBlue reagent were added, followed by an additional 6 h incubation. The fluorescent intensity was measured using a Spectrafluor Plus plate reader with excitation at 530 nm and emission at 590 nm. Results are reported as IC50 values, the average concentration required to produce a decrease of fluorescent intensity of 50% relative to vehicle-treated controls in two separate determinations.

[2] = system: MDA-231; assay: alamarBlue cytotoxicity assay, MDA-231; assay type: cell-based; conditions: Homo sapiens, MDA-MB-231; MDA-231, alamarBlue
Method: as §1

[3] = system: yeast, or fungi; conditions: yeast, or fungi, concentrations as large as 250 μM; cited from earlier work
[4] = Metal ion binding by continuous variation, Mg2+; conditions: Mg^2+, methanol, 1:1 complex
Method: Previous work indicated the metal ion binding mechanism of UK-1, so the method of continuous variation was used to determine the ability of selected UK-1analogues to bind a variety of metal ions. Methanolic solutions of UK-1 or UK-1 analogues and metal ion salts [Ca(NO3)2, Mg(NO3)2, Zn(NO3)2, or Fe(NO3)3] at various molar ratios, and 20 μM combined total concentration, were prepared and the absorbance at 418 nm was determined. […] Compound 2.1 does bind with Ca^2+ and Zn^2+ better than UK-1.
Continuous variation plots. A 100 μM solution of UK-1 or analogue and 100 AM solutions of Ca(NO3)2, Mg(NO3)2, Zn(NO3)2, or Fe(NO3)3 were prepared in methanol. From these stock solutions, 15 samples (1 mL) of varying mole fraction of the metal ion were prepared at a constant, combined concentration of 20 μM for the ligand and the metal ion. The change in absorbance was monitored from 500 to 200 nm for each sample using as a reference a 1 mL solution containing the same concentration of ligand as the sample being measured but without the metal ion. The maximum absorbance change was typically around 418 nm but varied somewhat for each metal ion. The absorbance at 418 nm was plotted as a function of the mole fraction of the metal ion and the maximum absorbance change was determined. The absorbance of a sample containing the metal ion concentration corresponding to this maximum change and a 15 fold excess of metal ion at this ligand concentration, subtracted from a reference containing the same concentration of ligand but no metal ion was used to normalize the curve and obtain the conditional formation constant as described in the paper to Likussar, W.; Boltz, D. F. Anal. Chem. 1971, 43, 1265-1272, which is incorporated herein by reference.

[5] = alamarBlue cytotoxicity, range over four cell lines; assay type: cell-based; conditions: human
Method: as §1, with “hours.” for “hours. The final pyridine concentration in all cases was 0.4%; at this pyridine concentration there was no affect on the growth of cells compared to cells in culture media without added pyridine.”, “nm.” for “nm. Results are reported as IC50 values, the average concentration required to produce a decrease of fluorescent intensity of 50% relative to vehicle-treated controls in two separate determinations.”

[6] = system: gram-positive or gram negative bacteria; conditions: gram-positive or gram negative bacteria, concentrations as large as 250 μM; cited from earlier work
[7] = system: Pseudomonas aeruginosa; assay: Antimicrobial bioassay, P. aeruginosa; assay type: cell-based; conditions: concentrations up to 50 μg/mL
[8] = system: Staphylococcus aureus ATCC 29213; assay: Antimicrobial bioassay, S. aureus; assay type: cell-based; conditions: Staphylcoccus aureus, concentrations up to 50 μg/mL
Method: Antimicrobial Bioassay: Staphylococcus aureus ATCC 29213 and methicillin-resistant S. aureus ATCC 43300 (MRS) were obtained from the American Type Culture Collection (Rockville, Md.) and stored on agar slants at 4° C. until needed. Susceptibility testing was performed using a modified version of the NCCLS methods: “Methods for Dilution Antimicrobial Susceptibility Tests for Bacteria that Grow Aerobically,” M7-A4, Vol. 17, No. 2, NCCLS, (1997) and “Reference Method for Broth Dilution Antifungal Susceptibility Testing of Yeasts; Approved Standard,” M27-A, Vol. 17, No. 9, NCCLS, (1997), both of which are incorporated herein by reference. Microorganisms were subcultured prior to the assay by suspending cells from the slant in Eugon broth (BBL, Maryland) and incubating for 24 hours at 37° C. Inocula were prepared by diluting the subcultured organism in its incubation broth after comparison to the 0.5 McFarland Standard (a BaSO4 suspension) to afford final inocula ranges of S. aureus: 1.0-5.0×10^5 and MRS: 0.2-6.0×10^5 CFU/ml. Test compounds were dissolved in DMSO, serially-diluted using normal saline, and transferred in duplicate to 96 well flat-bottomed microtiter plates. The microbial inocula were added to the samples to achieve a final volume of 200 μl and final compound concentrations starting with 50 μg/ml. Drug [Ciprofloxacin (ICN Biomedicals, Ohio)] as well as growth and blank (media only) controls were added to each test plate. Plates were read at 630 nm using the EL-340 Biokinetics Reader (Bio-Tek Instruments, Vermont) prior to and after incubation at 37° C. for 24 hours. Percent growth was calculated and plotted versus concentration to afford the IC50, or sample concentration that affords 50% growth of the organism relative to controls.

[9] = system: PC-3 cells; assay: alamarBlue cytotoxicity assay, PC-3; assay type: cell-based, human; conditions: PC-3, alamarBlue
Method: as §1

[10] = system: HL60 cells; assay: alamarBlue cytotoxicity assay, HL60; assay type: cell-based, human; conditions: HL60, alamarBlue, 72 h
Method: as §1

[11] = alamarBlue cytotoxicity, range over three cell lines; assay type: cell-based; conditions: human; range of concentrations required to inhibit growth of MCF-7, HT-29, and PC-3 cells by 50%
Method: as §1

In the case of `COC(=O)c1cccc2oc(-c3cccc4oc(-c5ccccc5O)nc34)nc12` [UK-1], the IC50 [1] is listed as 7000 nM, the IC50 [2] is listed as 500 nM and the growth inhibition [3] is listed as “does not inhibit the growth”. For the same molecule, the “Association constant for metal ion binding” value [4] was 2e+06 M⁻¹, the IC50 at 72 h [5] was 320 to 65000 nM and the growth inhibition [6] was “does not inhibit the growth”. For the same molecule, the antibacterial effect [7] was “no indication of any antibacterial effect”, the antibacterial effect [8] was “no indication of any antibacterial effect” and the IC50 ([9]; Homo sapiens, PC-3, 72 h) was 400 nM. The IC50 ([9]; 72 h) was 320 nM, the IC50 [10] was 400 nM and the IC50 ([10]; Homo sapiens, HL-60, 72 h) was 320 nM. It also gave an IC50 at 72 h [11] of 320 to 65000 nM.
